From patent publication US20220175916A1, “METHODS AND COMPOSITIONS FOR TREATING CHRONIC EFFECTS OF RADIATION AND CHEMICAL EXPOSURE” (priority 2018, published 2022)

System: pancreatic cancer PANG-1 cell line
Test: Fluorescence microscopy study of etoposide-induced senescence and anti-AGE antibody staining
Assay type: cell-based
Conditions: 12.5 μM for 24 hours
Protocol: Cells from the pancreatic cancer PANG-1 cell line were treated with 12.5 μM etoposide, a chemotherapeutic agent, for 24 hours to induce senescence. Control cells were treated with dimethyl sulfoxide (DMSO) vehicle for 24 hours. The cells were then stained with a senescence β-galactosidase staining kit, an anti-AGE antibody conjugated to green fluorescent protein (GFP) or an anti-AGE antibody conjugated to GFP and 4′,6-diamidino-2-phenylindole (DAPI). GFP-stained cells appear green and DAPI-stained cells appear blue under fluorescence microscopy.
(§1) FIG. 2A illustrates the untreated cells after staining with the senescence β-galactosidase staining kit. FIG. 2B illustrates the untreated cells after staining with the anti-AGE antibody conjugated to GFP. FIG. 2C illustrates the untreated cells after staining with the anti-AGE antibody conjugated to GFP-DAPI. FIGS. 2B and 2C have been brightened to enhance contrast. The untreated cells appear relatively uniform in size and shape and are densely packed.
as §1, with “2D” for “2A”, “etoposide-treated” for “untreated”, “2E” for “2B”, “2F” for “2C”, “contrast.” for “contrast. The untreated cells appear relatively uniform in size and shape and are densely packed.”

## COc1cc([C@@H]2c3cc4c(cc3[C@@H](O[C@@H]3O[C@@H]5CO[C@@H](C)O[C@H]5[C@H](O)[C@H]3O)[C@H]3COC(=O)[C@H]23)OCO4)cc(OC)c1O [etoposide]
  Appearance of treated cells (senescence): irregular appearance, are larger in size and are loosely packed
